≈ marks a conversion by molar mass, not a printed value. Calls of active or inactive are those of the source. No cut-off for these calls is given here.
Assays:
Escherichia coli [1] = test: Antibacterial activity against Escherichia coli XL1 assessed as bacterial growth inhibition at 80 uM by spectrophotometric method; type: functional; conditions: read-out: GI
Bacillus subtilis [2] = test: Antibacterial activity against Bacillus subtilis 168 assessed as fold increase in average cell length at 7 uM incubated for 4 hrs by fluorescent microscopy; type: functional
Bacillus subtilis [3] = test: Antibacterial activity against Bacillus subtilis 168 assessed as bacterial growth inhibition at 10 uM by spectrophotometric method; type: functional; conditions: read-out: GI
Bacillus subtilis [4] = test: Antibacterial activity against Bacillus subtilis 168 assessed as bacterial growth inhibition at 20 uM by spectrophotometric method; type: functional; conditions: read-out: GI
HeLa [5] = test: Antiproliferative activity against human HeLa cells assessed as inhibition of cell proliferation at 20 uM incubated for 24 hrs by sulforhodamine B assay; type: functional; set-up: scale not given: the % may be the effect or the level left
[6] = target: T1, Cell division protein FtsZ (Escherichia coli K-12) (UniProt P0A9A6); test: Inhibition of Escherichia coli BL21 FtsZ assessed as inhibition of KCl-induced GTPase activity at 20 uM preincubated for 10 mins followed by KCl stimulation and measured after 10 mins by malachite green ammonium molybdate dye based spectroscopic analysis; conditions: time 20.0 min
T1 sequence (whole entry): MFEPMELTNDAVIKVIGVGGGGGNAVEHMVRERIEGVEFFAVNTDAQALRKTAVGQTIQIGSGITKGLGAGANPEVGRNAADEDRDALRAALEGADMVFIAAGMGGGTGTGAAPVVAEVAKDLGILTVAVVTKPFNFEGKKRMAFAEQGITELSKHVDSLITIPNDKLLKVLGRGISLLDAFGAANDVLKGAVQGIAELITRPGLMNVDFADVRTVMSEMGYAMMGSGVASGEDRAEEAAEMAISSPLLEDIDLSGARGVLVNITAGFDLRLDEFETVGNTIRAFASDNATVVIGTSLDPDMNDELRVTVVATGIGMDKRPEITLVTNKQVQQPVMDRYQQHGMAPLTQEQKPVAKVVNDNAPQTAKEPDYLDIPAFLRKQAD

Escherichia coli [7] = test: Antibacterial activity against Escherichia coli XL1 assessed as bacterial growth inhibition at 200 uM by spectrophotometric method; type: functional; conditions: read-out: GI
HeLa [8] = test: Antiproliferative activity against human HeLa cells assessed as inhibition of cell proliferation at 300 uM incubated for 24 hrs by sulforhodamine B assay; type: functional; set-up: scale not given: the % may be the effect or the level left
[9] = target: T1, Cell division protein FtsZ (Escherichia coli K-12); test: Inhibition of KCl-induced Escherichia coli BL21 FtsZ polymerization at 80 uM incubate for 10 min followed by KCl stimulation by spectrofluorimeter based light-scattering assay
Bacillus subtilis [10] = test: Antibacterial activity against Bacillus subtilis 168 assessed as bacterial growth inhibition at 5 uM by spectrophotometric method; type: functional; conditions: read-out: GI
[11] = target: T1, Cell division protein FtsZ (Escherichia coli K-12); test: Binding affinity to Escherichia coli BL21 FtsZ assessed as hydrophobic probe ANS-FtsZ complex fluorescence quenching at 40 uM for 30 mins by fluorescence analysis
Bacillus subtilis [12] = test: Antibacterial activity against Bacillus subtilis 168 assessed as bacterial growth inhibition at 30 uM by spectrophotometric method; type: functional; conditions: read-out: GI
[13] = target: T1, Cell division protein FtsZ (Escherichia coli K-12); test: Inhibition of KCl-induced Escherichia coli BL21 FtsZ polymerization assessed as decrease in FtsZ polymer thickness at 80 uM incubate for 1 hrs by […] staining based fluorescence microscopy
Escherichia coli [14] = test: Antibacterial activity against Escherichia coli XL1 assessed as bacterial growth inhibition at 20 uM by spectrophotometric method; type: functional; conditions: read-out: GI
[15] = target: T1, Cell division protein FtsZ (Escherichia coli K-12); test: Binding affinity to Escherichia coli BL21 FtsZ assessed as hydrophobic probe ANS-FtsZ complex fluorescence quenching at 80 uM for 30 mins by fluorescence analysis
Bacillus subtilis [16] = test: Antibacterial activity against Bacillus subtilis 168 assessed as bacterial growth inhibition by spectrophotometric method; type: functional, organism-based
[17] = target: T2, Cell division protein FtsZ (Bacillus subtilis) (UniProt A5Z1V5); test: Inhibition of Bacillus subtilis PL642 GFP-tagged FtsZ assessed as decrease FtsZ ring at mid bacterial cells at 7 uM for 4 hrs by immunostaining based fluorescent microscopy
T2 sequence (whole entry): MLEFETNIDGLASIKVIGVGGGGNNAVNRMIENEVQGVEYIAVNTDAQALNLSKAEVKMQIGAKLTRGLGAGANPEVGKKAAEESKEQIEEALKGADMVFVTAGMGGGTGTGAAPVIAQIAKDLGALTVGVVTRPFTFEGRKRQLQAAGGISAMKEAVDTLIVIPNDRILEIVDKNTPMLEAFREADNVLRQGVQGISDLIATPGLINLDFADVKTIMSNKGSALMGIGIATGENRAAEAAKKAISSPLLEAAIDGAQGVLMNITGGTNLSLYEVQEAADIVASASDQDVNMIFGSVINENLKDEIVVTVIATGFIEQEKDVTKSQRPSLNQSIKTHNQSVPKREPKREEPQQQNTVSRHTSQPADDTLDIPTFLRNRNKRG

Bacillus subtilis [18] = test: Antibacterial activity against Bacillus subtilis 168 assessed as minimum inhibitory concentration by spectrophotometric method; type: functional
HeLa [19] = test: Antiproliferative activity against human HeLa cells assessed as inhibition of cell proliferation at 100 uM incubated for 24 hrs by sulforhodamine B assay; type: functional; set-up: scale not given: the % may be the effect or the level left
[20] = target: T1, Cell division protein FtsZ (Escherichia coli K-12); test: Inhibition of KCl-induced Escherichia coli BL21 FtsZ polymerization at 20 uM incubate for 10 min followed by KCl stimulation by spectrofluorimeter based light-scattering assay
[21] = target: T1, Cell division protein FtsZ (Escherichia coli K-12); test: Binding affinity to Escherichia coli BL21 FtsZ assessed as hydrophobic probe ANS-FtsZ complex fluorescence quenching at 5 uM for 30 mins by fluorescence analysis
HeLa [22] = test: Antiproliferative activity against human HeLa cells assessed as inhibition of cell proliferation incubated for 24 hrs by sulfo-rhodamine B assay; type: functional, cell-based
[23] = target: T1, Cell division protein FtsZ (Escherichia coli K-12); test: Inhibition of KCl-induced Escherichia coli BL21 FtsZ polymerization assessed as decrease in FtsZ polymer average length at 80 uM incubate for 1 hrs by […] staining based fluorescence microscopy
Bacillus subtilis [24] = test: Antibacterial activity against Bacillus subtilis 168 assessed as increase in average cell length at 7 uM incubated for 4 hrs in 9% of bacterial cells by fluorescent microscopy; type: functional
Escherichia coli [25] = test: Antibacterial activity against Escherichia coli XL1 assessed as bacterial growth inhibition at 300 uM by spectrophotometric method; type: functional; conditions: read-out: GI

Structure (SMILES): O=C1c2ccccc2C(=O)c2c(O)c(O)cc(O)c21 [PURPURIN]
- inhibition of growth at 80 µM (Escherichia coli [1]): 38%
- fold change (FC) (Bacillus subtilis [2]): 10
- inhibition of growth at 10 µM (Bacillus subtilis [3]): 65%
- inhibition of growth at 20 µM (Bacillus subtilis [4]): 86%
- Activity (HeLa [5]): 14%
- inhibition [6]: 15.9%
- inhibition of growth at 200 µM (Escherichia coli [7]): 67.8%
- Activity (HeLa [8]): 89%
- inhibition [9]: 47%
- inhibition of growth at 5 µM (Bacillus subtilis [10]): 47%
- Activity [11]: 66%
- inhibition of growth at 30 µM (Bacillus subtilis [12]): 100%
- inhibition [13]: Active
- inhibition of growth at 20 µM (Escherichia coli [14]): 18.5%
- Activity [15]: 81%
- IC50 (Bacillus subtilis [16]): 5.5 µM
- Activity [17]: Active
- MIC (Bacillus subtilis [18]): 30 µM (≈ 7.69 µg/mL)
- Activity (HeLa [19]): 45%
- inhibition [20]: 20%
- Activity [21]: 25%
- IC50 (HeLa [22]): 110 µM
- inhibition [23]: Active
- Activity (Bacillus subtilis [24]): 7 um
- inhibition of growth at 300 µM (Escherichia coli [25]): 94.7%
